Columns and labels:
RAW264.7 [1] = test: Antiinflammatory activity in mouse RAW264.7 cells assessed as inhibition of LPS-induced IL-1beta level at 10 uM incubated for 24 hrs prior to LPS challenge measured after 3 hrs by qRT-PCR analysis relative to control; type: functional
RAW264.7 [2] = test: Antiinflammatory activity in mouse RAW264.7 cells assessed as inhibition of LPS-induced IL-6 level at 10 uM incubated for 24 hrs prior to LPS challenge measured after 3 hrs by qRT-PCR analysis relative to control; type: functional
RAW264.7 [3] = test: Antiinflammatory activity in mouse RAW264.7 cells assessed as inhibition of LPS-induced TNF-alpha level at 10 uM incubated for 24 hrs prior to LPS challenge measured after 3 hrs by qRT-PCR analysis relative to control; type: functional
RAW264.7 [4] = test: Cytotoxicity against mouse RAW264.7 cells; type: cell-based
RAW264.7 [5] = test: Antiinflammatory activity in mouse RAW264.7 cells assessed as inhibition of LPS-induced IL-1beta level at 5 uM incubated for 24 hrs prior to LPS challenge measured after 3 hrs by qRT-PCR analysis relative to control; type: functional
RAW264.7 [6] = test: Antiinflammatory activity in mouse RAW264.7 cells assessed as inhibition of LPS-induced IL-6 level at 5 uM incubated for 24 hrs prior to LPS challenge measured after 3 hrs by qRT-PCR analysis relative to control; type: functional
RAW264.7 [7] = test: Antiinflammatory activity in mouse RAW264.7 cells assessed as inhibition of LPS-induced TNF-alpha level at 5 uM incubated for 24 hrs prior to LPS challenge measured after 3 hrs by qRT-PCR analysis relative to control; type: functional
RAW264.7 [8] = test: Antiinflammatory activity in mouse RAW264.7 cells assessed as inhibition of LPS-induced IL-1beta level at 1 uM incubated for 24 hrs prior to LPS challenge measured after 3 hrs by qRT-PCR analysis relative to control; type: functional
RAW264.7 [9] = test: Antiinflammatory activity in mouse RAW264.7 cells assessed as inhibition of LPS-induced IL-6 level at 1 uM incubated for 24 hrs prior to LPS challenge measured after 3 hrs by qRT-PCR analysis relative to control; type: functional
RAW264.7 [10] = test: Antiinflammatory activity in mouse RAW264.7 cells assessed as inhibition of LPS-induced TNF-alpha level at 1 uM incubated for 24 hrs prior to LPS challenge measured after 3 hrs by qRT-PCR analysis relative to control; type: functional

Compound	inhibition at 10 µM (RAW264.7 [1])	inhibition at 10 µM (RAW264.7 [2])	inhibition at 10 µM (RAW264.7 [3])	Activity (RAW264.7 [4])	inhibition at 5 µM (RAW264.7 [5])	inhibition at 5 µM (RAW264.7 [6])	inhibition at 5 µM (RAW264.7 [7])	inhibition at 1 µM (RAW264.7 [8])	inhibition at 1 µM (RAW264.7 [9])	inhibition at 1 µM (RAW264.7 [10])
CC1=C(C/C=C(\C)CC/C=C(\C)CC/C=C(\C)CCC(=O)O)C(=O)c2ccccc2C1=O	21.3%	10.6%	2.2%	Non-toxic	–	–	–	–	–	–
CC1=C(C/C=C(\C)CC/C=C(\C)CC/C=C(\C)C(=O)O)C(=O)c2ccccc2C1=O	37%	46.3%	24.4%	Non-toxic	–	–	–	–	–	–
CC1=C(C/C=C(\C)CC/C=C(\C)CCC(=O)O)C(=O)c2ccccc2C1=O	–	–	–	Non-toxic	51.5%	52.1%	26.3%	–	–	–
CC1=C(C/C=C(\C)CC/C=C(\C)C(=O)O)C(=O)c2ccccc2C1=O	–	–	–	Non-toxic	–	–	–	43.5%	47.7%	7.7%
CC1=C(C/C=C(\C)CCC(=O)O)C(=O)c2ccccc2C1=O	–	–	–	Non-toxic	28.3%	29.8%	25.2%	–	–	–
CC1=C(C/C=C(\C)C(=O)O)C(=O)c2ccccc2C1=O	40.6%	34.4%	20.8%	Non-toxic	–	–	–	–	–	–
CC1=C(CCC(C)C(=O)O)C(=O)c2ccccc2C1=O (stereo not drawn)	–	–	–	Non-toxic	–	–	–	23.1%	20.6%	17.3%

From ChEMBL document CHEMBL3400021, “Systematic synthesis and anti-inflammatory activity of ω-carboxylated menaquinone derivatives--Investigations on identified and putative vitamin K₂ metabolites” (Bioorg Med Chem, 2015)
